Laboratory results from BindingDB's records for doi:10.7270/Q2Q52N1X (Vanderbilt Screening Center for GPCRs, Ion Channels and …, 2009).

Target: T1, Solute carrier family 12 member 5 (Homo sapiens, UniProt Q9H2X9)
T1 sequence (Q9H2X9 whole entry): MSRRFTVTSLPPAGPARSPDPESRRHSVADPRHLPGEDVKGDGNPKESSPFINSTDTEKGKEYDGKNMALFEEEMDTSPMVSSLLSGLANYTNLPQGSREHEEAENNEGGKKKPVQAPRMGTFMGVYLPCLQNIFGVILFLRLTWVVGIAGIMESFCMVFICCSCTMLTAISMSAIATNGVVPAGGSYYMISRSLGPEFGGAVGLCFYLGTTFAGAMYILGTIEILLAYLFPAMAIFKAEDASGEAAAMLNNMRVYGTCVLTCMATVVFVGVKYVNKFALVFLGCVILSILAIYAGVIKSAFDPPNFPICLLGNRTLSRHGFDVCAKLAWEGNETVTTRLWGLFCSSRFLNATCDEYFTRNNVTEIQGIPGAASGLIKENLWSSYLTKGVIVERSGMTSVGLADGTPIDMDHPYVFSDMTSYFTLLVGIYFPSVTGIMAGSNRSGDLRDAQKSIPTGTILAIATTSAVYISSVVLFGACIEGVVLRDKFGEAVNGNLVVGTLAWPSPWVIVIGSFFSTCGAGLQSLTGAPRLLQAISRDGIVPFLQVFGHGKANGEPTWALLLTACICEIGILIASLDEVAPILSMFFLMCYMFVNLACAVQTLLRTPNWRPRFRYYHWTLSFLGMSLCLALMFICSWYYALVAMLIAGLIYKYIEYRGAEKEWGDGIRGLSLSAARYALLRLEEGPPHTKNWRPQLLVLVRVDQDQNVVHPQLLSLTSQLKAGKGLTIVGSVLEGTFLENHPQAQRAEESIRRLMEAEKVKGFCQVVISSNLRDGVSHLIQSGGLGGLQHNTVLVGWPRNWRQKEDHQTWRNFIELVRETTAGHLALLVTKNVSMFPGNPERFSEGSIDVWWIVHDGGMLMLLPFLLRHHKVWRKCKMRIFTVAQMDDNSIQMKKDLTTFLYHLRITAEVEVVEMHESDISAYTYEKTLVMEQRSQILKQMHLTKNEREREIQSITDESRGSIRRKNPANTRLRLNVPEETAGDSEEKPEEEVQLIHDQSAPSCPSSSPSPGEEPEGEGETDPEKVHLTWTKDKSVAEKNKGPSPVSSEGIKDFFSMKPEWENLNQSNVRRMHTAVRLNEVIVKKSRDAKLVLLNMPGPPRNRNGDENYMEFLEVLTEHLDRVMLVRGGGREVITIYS
Test: KCC2 modulator potency by thallium flux, dose response, cell-based, HEK293 KCC2, FluoZin-2 fluorescence (AID 1736)
Conditions: not given

Row | SMILES | EC50
1 | NC(=S)NN=C1C(=O)N(Cc2ccc(F)cc2)c2ccccc21 [1-[(Z)-[1-[(4-fluorophenyl)methyl]-2-oxidanylidene-indol-3-ylidene]amino]thiourea] | 38 µM
2 | O=C(C1CC1)N1CCc2cc(S(=O)(=O)NC3CCN(Cc4ccccc4)CC3)ccc21 [1-[cyclopropyl(oxo)methyl]-N-[1-(phenylmethyl)-4-piperidinyl]-2,3-dihydroindole-5-sulfonamide] | 22.7 µM
3 | O=C(NN=Cc1ccc(OCc2ccccc2)cc1)c1cc[n+](Cc2ccccc2)cc1 [1-benzyl-4-({2-[4-(benzyloxy)benzylidene]hydrazino}carbonyl)pyridinium chloride] | 563 µM
4 | O=C(NN=Cc1ccc(Cl)s1)C1COc2ccccc2O1 (stereo not given) [2,3-Dihydro-benzo[1,4]dioxine-2-carboxylic acid [1-(5-chloro-thiophen-2-yl)-meth-(Z)-ylidene]-hydrazide] | 32.7 µM
5 | O=C(NC(=S)Nc1nc(-c2cccc([N+](=O)[O-])c2)cs1)c1cc(Cl)ccc1Cl [2,5-bis(chloranyl)-N-[[4-(3-nitrophenyl)-1,3-thiazol-2-yl]carbamothioyl]benzamide] | 34.7 µM
6 | O=C(COC(=O)c1cc([N+](=O)[O-])ccc1NCCO)c1ccccc1 [2-(2-hydroxyethylamino)-5-nitro-benzoic acid phenacyl ester] | 41.9 µM
7 | O=C(Cn1nc2ccccc2n1)NN=Cc1cc(Cl)cc([N+](=O)[O-])c1O [2-(2H-1,2,3-benzotriazol-2-yl)-N'-{5-chloro-2-hydroxy-3-nitrobenzylidene}acetohydrazide] | 28.4 µM
8 | Cc1cc(C)c(C#N)c(N2CCN(Cc3ccccc3)CC2)n1 [2-(4-benzyl-1-piperazinyl)-4,6-dimethylnicotinonitrile] | 19.4 µM
9 | COc1ccc(S(=O)(=O)N2CCC(C(=O)N3CCc4ccccc4C3)CC2)cc1C [2-({1-[(4-methoxy-3-methylphenyl)sulfonyl]-4-piperidinyl}carbonyl)-1,2,3,4-tetrahydroisoquinoline] | 14.4 µM
10 | COc1ccc(OC)c(-n2nnnc2SCC(=O)NCCc2ccccc2)c1 [2-[1-(2,5-Dimethoxy-phenyl)-1H-tetrazol-5-ylsulfanyl]-N-phenethyl-acetamide] | 242 µM
11 | O=C1Nc2ccc([N+](=O)[O-])cc2OC1CCN1CCN(Cc2ccccc2)CC1 (stereo not given) [2-[2-(4-benzylpiperazin-1-yl)ethyl]-7-nitro-4H-1,4-benzoxazin-3-one] | 15.1 µM
12 | NC(=O)COc1ccccc1/C=C1/SC(=O)N(CC(=O)N2CCc3ccccc3C2)C1=O [2-[2-({3-[2-(3,4-dihydro-2(1H)-isoquinolinyl)-2-oxoethyl]-2,4-dioxo-1,3-thiazolidin-5-ylidene}methyl)phenoxy]acetamide] | 16.5 µM
13 | O=C(CSc1nnc(-c2ccc(F)cc2)o1)N1CCN(C(=O)c2ccco2)CC1 [2-[5-(4-Fluoro-phenyl)-[1,3,4]oxadiazol-2-ylsulfanyl]-1-[4-(furan-2-carbonyl)-piperazin-1-yl]-ethanone] | 17.7 µM

Continued, values first:

Row | EC50 | SMILES
14 | 0.618 µM | NC(=S)NN=C1C(=O)N(Cc2ccccc2)c2ccccc21 [1-[(Z)-[2-oxidanylidene-1-(phenylmethyl)indol-3-ylidene]amino]thiourea]
15 | 0.862 µM | O=C(CSc1ccc(-c2ccccc2)nn1)c1ccccc1 [1-phenyl-2-(6-phenylpyridazin-3-yl)sulfanyl-ethanone]
16 | 1.94 µM | CC1CCN(C(=O)c2ccc(SCc3ccccc3F)c([N+](=O)[O-])c2)CC1 [1-{4-[(2-fluorobenzyl)thio]-3-nitrobenzoyl}-4-methylpiperidine]
17 | 3.61 µM | O=C(c1ccc(S(=O)(=O)c2cccc(Cl)c2)c([N+](=O)[O-])c1)N1CCN(c2ccccn2)CC1 [1-{4-[(3-chlorophenyl)sulfonyl]-3-nitrobenzoyl}-4-pyridin-2-ylpiperazine]
18 | 3.15 µM | COc1cc(C=NNC(=O)CN(Cc2ccccc2)S(=O)(=O)c2ccc3c(c2)OCCO3)ccc1O [2,3-Dihydro-benzo[1,4]dioxine-6-sulfonic acid benzyl-(4-hydroxy-3-methoxy-benzylidene-hydrazinocarbonylmethyl)-amide]
19 | 3.82 µM | Cc1ccc(C)c(C(=O)NC(C)CCc2ccccc2)c1 (stereo not given) [2,5-dimethyl-N-(1-methyl-3-phenyl-propyl)benzamide]
20 | 1.97 µM | CCn1nnnc1SCC(=O)Nc1nc(-c2cccs2)cs1 [2-(1-Ethyl-1H-tetrazol-5-ylsulfanyl)-N-(4-thiophen-2-yl-thiazol-2-yl)-acetamide]
21 | 12.4 µM | Cn1c(CSc2nc3ccccc3s2)nc2ccccc21 [2-(1-Methyl-1H-benzoimidazol-2-ylmethylsulfanyl)-benzothiazole]
22 | 12.1 µM | C=CCNc1oc(Cc2cccc3ccccc23)nc1C#N [2-(1-naphthalenylmethyl)-5-(prop-2-enylamino)-4-oxazolecarbonitrile]
23 | 0.231 µM | O=C(CN1C(=O)NC2(CCCC2)C1=O)Nc1nc(-c2ccc(F)cc2)cs1 [2-(2,4-diketo-1,3-diazaspiro[4.4]nonan-3-yl)-N-[4-(4-fluorophenyl)thiazol-2-yl]acetamide]
24 | 4.59 µM | N#Cc1nc(-c2ccco2)oc1N1CCN(Cc2ccccc2)CC1 [2-(2-furanyl)-5-[4-(phenylmethyl)-1-piperazinyl]-4-oxazolecarbonitrile]
25 | 5.45 µM | CCc1ccc(C(=O)COC(=O)c2cc([N+](=O)[O-])ccc2NCCO)cc1 [2-(2-hydroxyethylamino)-5-nitro-benzoic acid [2-(4-ethylphenyl)-2-keto-ethyl] ester]
26 | 1.33 µM | O=C(Cn1nc(-c2ccccc2)ccc1=O)NCc1ccc2c(c1)OCO2 [2-(6-keto-3-phenyl-pyridazin-1-yl)-N-piperonyl-acetamide]
27 | 1.17 µM | O=C(Cn1cnc2c(nnn2-c2ccccc2)c1=O)NCCc1ccccc1 [2-(7-keto-3-phenyl-triazolo[4,5-d]pyrimidin-6-yl)-N-phenethyl-acetamide]
28 | 4.56 µM | O=C(COC(=O)c1cc([N+](=O)[O-])ccc1NCc1ccccc1)NC1CCCCC1 [2-(benzylamino)-5-nitro-benzoic acid [2-(cyclohexylamino)-2-keto-ethyl] ester]
29 | 4.96 µM | O=C(O)c1cc([N+](=O)[O-])ccc1NCc1ccccc1 [2-(benzylamino)-5-nitro-benzoic acid]
30 | 11.2 µM | O=[N+]([O-])c1ccc(CSc2nnc(SCc3ccccc3)s2)cc1 [2-(benzylthio)-5-[(4-nitrobenzyl)thio]-1,3,4-thiadiazole]
31 | 3.27 µM | O=c1c2ccccc2c(-c2nnc(S)o2)nn1Cc1ccccc1 [2-(phenylmethyl)-4-(2-sulfanylidene-3H-1,3,4-oxadiazol-5-yl)-1-phthalazinone]
32 | 10.9 µM | Cn1nccc1C(=O)OCC(=O)Nc1nc(-c2ccccc2)cs1 [2-Methyl-2H-pyrazole-3-carboxylic acid (4-phenyl-thiazol-2-ylcarbamoyl)-methyl ester]
33 | 3.26 µM | O=C(CSc1nnnn1-c1ccc(Cl)cc1)N1CCc2ccccc2C1 [2-[1-(4-chlorophenyl)tetrazol-5-yl]sulfanyl-1-(3,4-dihydro-1H-isoquinolin-2-yl)ethanone]
34 | 6.01 µM | CCc1ccc(Nc2nnc(SCC(=O)Nc3sccc3C(N)=O)s2)cc1 [2-[2-[[5-[(4-ethylphenyl)amino]-1,3,4-thiadiazol-2-yl]sulfanyl]ethanoylamino]thiophene-3-carboxamide]
35 | 2.61 µM | O=C(Cn1cnc2c(nnn2Cc2ccc(F)cc2)c1=O)NCc1ccc2c(c1)OCO2 [2-[3-(4-fluorobenzyl)-7-keto-triazolo[4,5-d]pyrimidin-6-yl]-N-piperonyl-acetamide]
36 | 5.5 µM | O=[N+]([O-])c1cc(-n2c(O)c3c(c2O)CCCC3)ccc1NC1CCN(Cc2ccccc2)CC1 [2-[3-nitro-4-[[1-(phenylmethyl)-4-piperidinyl]amino]phenyl]-3a,4,5,6,7,7a-hexahydroisoindole-1,3-dione]

Same assay, conditions: inactive by the depositor's call

Row | EC50 | SMILES
37 | 69.9 µM | O=C(CN1C(=O)NC(Cc2ccccc2)C1=O)NC(=O)NC1CCCCC1 (stereo not given) [2-(4-benzyl-2,5-diketo-imidazolidin-1-yl)-N-(cyclohexylcarbamoyl)acetamide]
38 | 260 µM | Cc1cccc(N2CCN(C(=O)Cn3ccc4ccccc4c3=O)CC2)c1C [2-[2-[4-(2,3-dimethylphenyl)-1-piperazinyl]-2-oxoethyl]-1-isoquinolinone]
39 | 49 µM | O=C(Cn1cnc2c(nnn2Cc2ccc(F)cc2)c1=O)NCc1ccco1 [2-[3-(4-fluorobenzyl)-7-keto-triazolo[4,5-d]pyrimidin-6-yl]-N-(2-furfuryl)acetamide]
40 | 9.22 µM | CCCCC(c1nnnn1Cc1ccco1)N1CCN(c2nc3ccccc3s2)CC1 (stereo not given) [2-[4-[1-[1-(2-furanylmethyl)-5-tetrazolyl]pentyl]-1-piperazinyl]-1,3-benzothiazole]
